Measured values taken from ChEMBL document CHEMBL5150076, “Discovery of Novel Orally Bioavailable Triazoles with Potent and Broad-Spectrum Antifungal Activity In Vitro and In Vivo” (J Med Chem, 2022).
≈ marks a conversion by molar mass, not a printed value.

What was measured:
Candida albicans [1] = assay: Antifungal activity against Candida albicans SC5314 incubated for 24 hrs by microbroth dilution method; assay type: functional
Cryptococcus neoformans [2] = assay: Antifungal activity against Cryptococcus neoformans H99 incubated for 72 hrs by microbroth dilution method; assay type: functional
Aspergillus fumigatus = assay: Antifungal activity against Aspergillus fumigatus 7544 incubated for 48 hrs by microbroth dilution method; assay type: functional
Nannizzia gypsea = assay: Antifungal activity against Microsporum gypseum; assay type: functional
Candida parapsilosis [3] = assay: Antifungal activity against Candida parapsilosis 22019; assay type: functional; details: Lodderomyces parapsilosis
Candida albicans [4] = assay: Antifungal activity against Candida albicans Y0109; assay type: functional
Cryptococcus neoformans [5] = assay: Antifungal activity against Cryptococcus neoformans 32605; assay type: functional
Nakaseomyces glabratus [6] = assay: Antifungal activity against Candida glabrata 537; assay type: functional
Trichophyton rubrum = assay: Antifungal activity against Trichophyton rubrum cmccftla; assay type: functional
Candida albicans [7] = assay: Antifungal activity against Candida albicans 305; assay type: functional
Pichia kudriavzevii [8] = assay: Antifungal activity against Candida krusei 467; assay type: functional
Candida parapsilosis [9] = assay: Antifungal activity against Candida parapsilosis 90018; assay type: functional; details: Lodderomyces parapsilosis
[Candida] auris [10] = Antifungal activity against Candida auris 887; assay type: functional; details: Candidozyma auris
Candida albicans [11] = assay: Antifungal activity against Candida albicans 25#; assay type: functional
Candida tropicalis [12] = assay: Antifungal activity against Candida tropicalis ATCC750; assay type: functional
Candida parapsilosis [13] = assay: Antifungal activity against Candida parapsilosis 660; assay type: functional; details: Lodderomyces parapsilosis
Pichia kudriavzevii [14] = assay: Antifungal activity against Candida krusei 463; assay type: functional
Pichia kudriavzevii [15] = assay: Antifungal activity against Candida krusei 629; assay type: functional
Candida albicans [16] = assay: Antifungal activity against Candida albicans 28#; assay type: functional
[Candida] auris [17] = Antifungal activity against Candida auris BS12372; assay type: functional; details: Candidozyma auris
Candida albicans [18] = assay: Antifungal activity against Candida albicans 14#; assay type: functional
Candida albicans [19] = assay: Antifungal activity against Candida albicans 12#; assay type: functional
Nakaseomyces glabratus [20] = assay: Antifungal activity against Candida glabrata ATCC2001; assay type: functional
Candida parapsilosis [21] = assay: Antifungal activity against Candida parapsilosis 700; assay type: functional; details: Lodderomyces parapsilosis
[Candida] auris [22] = Antifungal activity against Candida auris D12; assay type: functional; details: Candidozyma auris
Pichia kudriavzevii [23] = assay: Antifungal activity against Candida krusei 397; assay type: functional
Candida tropicalis [24] = assay: Antifungal activity against Candida tropicalis 112936; assay type: functional
[Candida] auris [25] = Antifungal activity against Candida auris 791; assay type: functional; details: Candidozyma auris
Candida albicans [26] = assay: Antifungal activity against Candida albicans 162; assay type: functional
Candida albicans [27] = assay: Antifungal activity against Candida albicans 20#; assay type: functional
in vitro = details: human, Caco-2 cells; at 64 µg/mL
[28] = Cytotoxicity against HUVEC assessed as cell viability at 64 ug/ml incubated for 24 hrs by CCK-8 assay; assay type: toxicity, cell-based; details: human, HUVEC cells, at 64 µg/mL, read-out: Activity

## C[C@@H](c1cn(-c2c(F)c(F)cc(F)c2F)nn1)[C@](O)(Cn1cncn1)c1ccc(F)cc1F
Candida albicans [1]
  MIC: 0.0625 µg/mL (≈ 0.133 µM)
Cryptococcus neoformans [2]
  MIC: 0.0625 µg/mL (≈ 0.133 µM)
Aspergillus fumigatus
  MIC: 2 µg/mL (≈ 4.27 µM)

## C[C@@H](c1cn(-c2cc(F)ccc2F)nn1)[C@](O)(Cn1cncn1)c1ccc(F)cc1F
Candida albicans [1]
  MIC: 0.0625 µg/mL (≈ 0.145 µM)
Cryptococcus neoformans [2]
  MIC: 0.0625 µg/mL (≈ 0.145 µM)
Nannizzia gypsea
  MIC: 2 µg/mL (≈ 4.63 µM)
Aspergillus fumigatus
  MIC: 2 µg/mL (≈ 4.63 µM)
Candida parapsilosis [3]
  MIC: 0.0625 µg/mL (≈ 0.145 µM)
Candida albicans [4]
  MIC: 0.0313 µg/mL (≈ 0.0724 µM)
Cryptococcus neoformans [5]
  MIC: 0.0313 µg/mL (≈ 0.0724 µM)
Nakaseomyces glabratus [6]
  MIC: 0.0625 µg/mL (≈ 0.145 µM)
Trichophyton rubrum
  MIC: 0.25 µg/mL (≈ 0.578 µM)

## C[C@@H](c1cn(-c2cccnc2)nn1)[C@](O)(Cn1cncn1)c1ccc(F)cc1F
Candida albicans [1]
  MIC: 0.25 µg/mL (≈ 0.629 µM)
Cryptococcus neoformans [2]
  MIC: 2 µg/mL (≈ 5.03 µM)
Aspergillus fumigatus
  MIC: 32 µg/mL (≈ 80.5 µM)

## C[C@@H](c1cn(-c2ccc(OC(F)(F)F)cc2)nn1)[C@](O)(Cn1cncn1)c1cc(F)ccc1F
Candida albicans [1]
  MIC: 0.0625 µg/mL (≈ 0.13 µM)
Cryptococcus neoformans [2]
  MIC: 0.125 µg/mL (≈ 0.26 µM)
Aspergillus fumigatus
  MIC: 32 µg/mL (≈ 66.6 µM)

## C[C@@H](c1cn(-c2ccc(OCc3ccc(C#N)cc3)cc2)nn1)[C@](O)(Cn1cncn1)c1ccc(F)cc1F
Candida albicans [1]
  MIC: 0.125 µg/mL (≈ 0.237 µM)
Aspergillus fumigatus
  MIC: > 64 µg/mL

## C[C@@H](c1cn(-c2ccc(Cl)cc2Cl)nn1)[C@](O)(Cn1cncn1)c1ccc(F)cc1F
Cryptococcus neoformans [2]
  MIC: 0.125 µg/mL (≈ 0.269 µM)
Aspergillus fumigatus
  MIC: > 8 µg/mL

## C[C@@H](c1cn(-c2ccc(Cl)cc2F)nn1)[C@](O)(Cn1cncn1)c1cc(F)ccc1F
Candida albicans [1]
  MIC: 0.0625 µg/mL (≈ 0.139 µM)
Cryptococcus neoformans [2]
  MIC: 0.0625 µg/mL (≈ 0.139 µM)
Aspergillus fumigatus
  MIC: 4 µg/mL (≈ 8.91 µM)

## C[C@@H](c1cn(-c2ccc(Cl)c(F)c2)nn1)[C@](O)(Cn1cncn1)c1ccc(F)cc1F
Candida albicans [1]
  MIC: 0.0313 µg/mL (≈ 0.0697 µM)
Cryptococcus neoformans [2]
  MIC: 0.0625 µg/mL (≈ 0.139 µM)
Aspergillus fumigatus
  MIC: 16 µg/mL (≈ 35.6 µM)

## CCC(C)n1ncn(-c2ccc(N3CCN(c4ccc(OCC5COC(Cn6cncn6)(c6ccc(Cl)cc6Cl)O5)cc4)CC3)cc2)c1=O (configuration not stated) [ITRACONAZOLE]
Candida albicans [7]
  MIC: > 16 µg/mL
Pichia kudriavzevii [8]
  MIC: 2 µg/mL (≈ 2.83 µM)
Candida parapsilosis [9]
  MIC: 0.5 µg/mL (≈ 0.709 µM)
[Candida] auris [10]
  MIC: 4 µg/mL (≈ 5.67 µM)
Candida albicans [11]
  MIC: > 64 µg/mL
Candida tropicalis [12]
  MIC: > 16 µg/mL
Candida parapsilosis [13]
  MIC: 1 µg/mL (≈ 1.42 µM)
Pichia kudriavzevii [14]
  MIC: 1 µg/mL (≈ 1.42 µM)
Pichia kudriavzevii [15]
  MIC: 1 µg/mL (≈ 1.42 µM)
Candida albicans [16]
  MIC: 0.5 µg/mL (≈ 0.709 µM)
[Candida] auris [17]
  MIC: 1 µg/mL (≈ 1.42 µM)
Candida albicans [18]
  MIC: > 64 µg/mL
Candida albicans [19]
  MIC: > 64 µg/mL
Nakaseomyces glabratus [20]
  MIC: 2 µg/mL (≈ 2.83 µM)
Candida parapsilosis [21]
  MIC: 4 µg/mL (≈ 5.67 µM)
[Candida] auris [22]
  MIC: 4 µg/mL (≈ 5.67 µM)
Pichia kudriavzevii [23]
  MIC: 2 µg/mL (≈ 2.83 µM)
Candida tropicalis [24]
  MIC: > 16 µg/mL
[Candida] auris [25]
  MIC: 4 µg/mL (≈ 5.67 µM)
Candida albicans [26]
  MIC: > 64 µg/mL
Candida albicans [27]
  MIC: 0.5 µg/mL (≈ 0.709 µM)

## C[C@@H](c1cn(-c2cc(F)cc(F)c2)nn1)[C@](O)(Cn1cncn1)c1ccc(F)cc1F
Candida albicans [1]
  MIC: 0.0625 µg/mL (≈ 0.145 µM)
Cryptococcus neoformans [2]
  MIC: 0.0625 µg/mL (≈ 0.145 µM)
Aspergillus fumigatus
  MIC: 8 µg/mL (≈ 18.5 µM)

## C[C@@H](c1cn(-c2ccc(O)cc2)nn1)[C@](O)(Cn1cncn1)c1ccc(F)cc1F
Candida albicans [1]
  MIC: 3 µg/mL (≈ 7.27 µM)
Cryptococcus neoformans [2]
  MIC: 2 µg/mL (≈ 4.85 µM)
Aspergillus fumigatus
  MIC: > 64 µg/mL

## CC(=O)c1ccc(-n2cc([C@H](C)[C@](O)(Cn3cncn3)c3ccc(F)cc3F)nn2)cc1
Candida albicans [1]
  MIC: 0.125 µg/mL (≈ 0.285 µM)
Cryptococcus neoformans [2]
  MIC: 0.25 µg/mL (≈ 0.57 µM)
Aspergillus fumigatus
  MIC: > 64 µg/mL

## C[C@@H](c1cn(-c2ccc(OCc3ccc(C(C)(C)C)cc3)cc2)nn1)[C@](O)(Cn1cncn1)c1ccc(F)cc1F
Candida albicans [1]
  MIC: 0.125 µg/mL (≈ 0.224 µM)
Cryptococcus neoformans [2]
  MIC: 0.5 µg/mL (≈ 0.895 µM)
Aspergillus fumigatus
  MIC: > 64 µg/mL

## C[C@@H](c1cn(-c2ccc(OCC(F)(F)F)nc2)nn1)[C@](O)(Cn1cncn1)c1ccc(F)cc1F
Candida albicans [1]
  MIC: 0.0313 µg/mL (≈ 0.0632 µM)
Cryptococcus neoformans [2]
  MIC: 0.0625 µg/mL (≈ 0.126 µM)
Aspergillus fumigatus
  MIC: 2 µg/mL (≈ 4.04 µM)

## C[C@@H](c1cn(-c2ccc(OCC(F)(F)C(F)(F)F)cc2)nn1)[C@](O)(Cn1cncn1)c1ccc(F)cc1F
Cryptococcus neoformans [2]
  MIC: 0.0625 µg/mL (≈ 0.115 µM)
Aspergillus fumigatus
  MIC: 8 µg/mL (≈ 14.7 µM)

## C[C@@H](c1cn(-c2ccccc2F)nn1)[C@](O)(Cn1cncn1)c1ccc(F)cc1F
Candida albicans [1]
  MIC: 0.0625 µg/mL (≈ 0.151 µM)
Cryptococcus neoformans [2]
  MIC: 0.0625 µg/mL (≈ 0.151 µM)
Aspergillus fumigatus
  MIC: 2 µg/mL (≈ 4.83 µM)

## C[C@@H](c1cn(-c2ccc(OC(F)F)cc2)nn1)[C@](O)(Cn1cncn1)c1ccc(F)cc1F
Candida albicans [1]
  MIC: 0.0313 µg/mL (≈ 0.0677 µM)
Cryptococcus neoformans [2]
  MIC: 0.125 µg/mL (≈ 0.27 µM)
Aspergillus fumigatus
  MIC: 8 µg/mL (≈ 17.3 µM)

## C[C@@H](c1cn(-c2ccccc2)nn1)[C@](O)(Cn1cncn1)c1ccc(F)cc1F
Candida albicans [1]
  MIC: 0.0625 µg/mL (≈ 0.158 µM)
Cryptococcus neoformans [2]
  MIC: 0.0625 µg/mL (≈ 0.158 µM)
Aspergillus fumigatus
  MIC: 4 µg/mL (≈ 10.1 µM)

## C[C@@H](c1cn(-c2c(F)cccc2F)nn1)[C@](O)(Cn1cncn1)c1ccc(F)cc1F
Candida albicans [1]
  MIC: 0.125 µg/mL (≈ 0.289 µM)
Cryptococcus neoformans [2]
  MIC: 0.125 µg/mL (≈ 0.289 µM)
Aspergillus fumigatus
  MIC: 2 µg/mL (≈ 4.63 µM)

## C[C@@H](c1cn(-c2ccc(Br)cc2)nn1)[C@](O)(Cn1cncn1)c1ccc(F)cc1F
Candida albicans [1]
  MIC: 0.0625 µg/mL (≈ 0.131 µM)
Cryptococcus neoformans [2]
  MIC: 0.125 µg/mL (≈ 0.263 µM)
Aspergillus fumigatus
  MIC: 8 µg/mL (≈ 16.8 µM)

## CC[C@@H]([C@H](C)O)n1ncn(-c2ccc(N3CCN(c4ccc(OC[C@@H]5CO[C@@](Cn6cncn6)(c6ccc(F)cc6F)C5)cc4)CC3)cc2)c1=O [POSACONAZOLE]
Candida albicans [7]
  MIC: > 16 µg/mL
Pichia kudriavzevii [8]
  MIC: 2 µg/mL (≈ 2.85 µM)
Candida albicans [1]
  MIC: 0.125 µg/mL (≈ 0.178 µM)
Cryptococcus neoformans [2]
  MIC: 0.5 µg/mL (≈ 0.713 µM)
In vitro
  viability at 24 h, 64 ug/ml: 68.3%
Aspergillus fumigatus
  MIC: 0.5 µg/mL (≈ 0.713 µM)
Candida parapsilosis [9]
  MIC: 0.5 µg/mL (≈ 0.713 µM)
[Candida] auris [10]
  MIC: ≤ 0.125 µg/mL
Candida albicans [11]
  MIC: > 64 µg/mL
Candida tropicalis [12]
  MIC: > 16 µg/mL
Candida parapsilosis [13]
  MIC: 0.5 µg/mL (≈ 0.713 µM)
Pichia kudriavzevii [14]
  MIC: 2 µg/mL (≈ 2.85 µM)
Pichia kudriavzevii [15]
  MIC: 2 µg/mL (≈ 2.85 µM)
Candida albicans [16]
  MIC: 0.5 µg/mL (≈ 0.713 µM)
[Candida] auris [17]
  MIC: ≤ 0.125 µg/mL
Candida albicans [18]
  MIC: > 64 µg/mL
Candida albicans [19]
  MIC: > 64 µg/mL
Nakaseomyces glabratus [20]
  MIC: 2 µg/mL (≈ 2.85 µM)
Candida parapsilosis [21]
  MIC: 1 µg/mL (≈ 1.43 µM)
[Candida] auris [22]
  MIC: ≤ 0.125 µg/mL
[28]
  viability at 24 h, 64 ug/ml: 115%
Pichia kudriavzevii [23]
  MIC: 2 µg/mL (≈ 2.85 µM)
Candida tropicalis [24]
  MIC: > 16 µg/mL
[Candida] auris [25]
  MIC: ≤ 0.125 µg/mL
Candida albicans [26]
  MIC: > 64 µg/mL
Candida albicans [27]
  MIC: 0.5 µg/mL (≈ 0.713 µM)
